Here are results for 65 molecules from ChEMBL document CHEMBL3879881, “Substituted pyrazolyl compounds for the treatment of inflammation” (2005).

For this assay, the target named is T1, Inhibitor of nuclear factor kappa-B kinase subunit beta (Homo sapiens, UniProt O14920).
T1 sequence (O14920 whole entry): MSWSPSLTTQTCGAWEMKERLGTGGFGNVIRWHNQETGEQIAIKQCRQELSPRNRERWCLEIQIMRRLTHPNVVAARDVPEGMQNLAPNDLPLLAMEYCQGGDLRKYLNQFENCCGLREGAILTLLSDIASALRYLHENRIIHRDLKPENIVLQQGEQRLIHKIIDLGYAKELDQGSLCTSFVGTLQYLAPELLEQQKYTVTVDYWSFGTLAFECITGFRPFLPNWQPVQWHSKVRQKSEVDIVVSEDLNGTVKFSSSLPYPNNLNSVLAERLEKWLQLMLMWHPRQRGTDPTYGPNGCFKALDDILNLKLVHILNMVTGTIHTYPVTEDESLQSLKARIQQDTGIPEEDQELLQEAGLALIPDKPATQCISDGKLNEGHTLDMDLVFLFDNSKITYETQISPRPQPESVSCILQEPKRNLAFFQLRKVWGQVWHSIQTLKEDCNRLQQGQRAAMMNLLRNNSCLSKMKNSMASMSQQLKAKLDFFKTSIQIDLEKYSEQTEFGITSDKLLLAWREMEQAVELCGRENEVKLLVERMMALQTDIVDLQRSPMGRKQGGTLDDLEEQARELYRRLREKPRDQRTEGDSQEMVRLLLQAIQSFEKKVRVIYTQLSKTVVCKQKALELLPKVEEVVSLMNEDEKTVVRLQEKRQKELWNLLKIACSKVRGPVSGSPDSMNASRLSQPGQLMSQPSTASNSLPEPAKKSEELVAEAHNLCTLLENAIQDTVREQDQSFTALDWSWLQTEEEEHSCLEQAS
The assay is described as follows: Inhibition of human recombinant C-terminal FLAG-epitope-tagged IKK2 expressed in baculovirus using biotinylated IkappaBalpha peptide as substrate assessed as decrease in [gamma-33P]-ATP incorporation in substrate after 30 mins by scintillation counting method.
As usually defined, the IC50 is the concentration at which inhibition is half-maximal. As to `CCN1CCN(c2cc(C(=O)Nc3ccc4c(c3)-c3c(c(C(N)=O)nn3-c3ccc(F)cc3)CC4)c(Cl)cn2)CC1`, the IC50 was at most 1 µM.

With `NC(=O)c1nn(-c2ccc(F)cc2)c2c1CCc1ccc(NC(=O)c3cc4c(cc3Cl)OCO4)cc1-2`, the concentration for half-maximal inhibition (IC50) was at most 1 µM.

As to `NC(=O)c1nn(-c2ccc(S(N)(=O)=O)cc2)c2c1CCc1ccc(NC(=O)C3CCC3)cc1-2`, the concentration for half-maximal inhibition (IC50) was in the range of 1 to 10 µM.

In the case of `CC(=O)/C=C/c1ccc(-n2nc(C(N)=O)c3c2-c2cc(NC(=O)c4ccccc4Cl)ccc2CC3)cc1`, the IC50 is at most 1 µM.

Turning to `NC(=O)c1nn(-c2ccc3c(c2)OCO3)c2c1CCc1ccc(NC(=O)c3cc(Cl)cnc3Cl)cc1-2`, the IC50 is at most 1 µM.

With `C[C@H](N)C(=O)Nc1ccc2c(c1)-c1c(c(C(N)=O)nn1-c1ccc(S(N)(=O)=O)cc1)CC2`, the half-inhibitory concentration (IC50) lay in the range of 1 to 10 µM.

Regarding `NC(=O)c1nn(-c2ccc(F)cc2)c2c1CCc1ccc(NC(=O)c3cc(CCN4CCOCC4)ncc3Cl)cc1-2`, the IC50 was at most 1 µM.

With `NC(=O)c1nn(-c2ccc(S(N)(=O)=O)cc2)c2c1CCc1ccc(NS(=O)(=O)c3ccc(Cl)cc3)cc1-2`, the half-maximal inhibitory concentration (IC50) was 1 to 10 µM.

Consider `NC(=O)c1nn(-c2ccc(O)cc2)c2c1CCc1ccc(NC(=O)c3cc4c(cc3Cl)OCO4)cc1-2`, for which the IC50 was at most 1 µM.

In the case of `NC(=O)c1nn(-c2cccc(F)c2)c2c1CCc1ccc(NC(=O)c3cccc(Cl)c3F)cc1-2`, the concentration for half-maximal inhibition (IC50) lay within 1 to 10 µM.

Regarding `CCS(=O)(=O)c1ccc(-n2nc(C(N)=O)c3c2-c2cc(NS(C)(=O)=O)ccc2CC3)cc1`, the IC50 fell in the range of 1 to 10 µM.

For `COc1cccc(C(=O)Nc2ccc3c(c2)-c2c(c(C(N)=O)nn2-c2ccc(S(N)(=O)=O)cc2)CC3)c1`, the IC50 is at most 1 µM.

Turning to `CCCS(=O)(=O)c1ccc(-n2nc(C(N)=O)c3c2-c2cc(NC(=O)c4cc(N)ccc4Cl)ccc2CC3)cc1`, the half-maximal inhibitory concentration (IC50) was at most 1 µM.

Take `Cc1ccccc1C(=O)Nc1ccc2c(c1)-c1c(c(C(N)=O)nn1-c1ccc(S(N)(=O)=O)cc1)CC2`: the IC50 was at most 1 µM.

Regarding `CCCS(=O)(=O)c1ccc(-n2nc(C(N)=O)c3c2-c2cc(N)ccc2CC3)cc1`, the IC50 lay within 1 to 10 µM.

For `NC(=O)c1nn(-c2ccc(S(N)(=O)=O)cc2)c2c1CCc1ccc(NCc3ccccc3)cc1-2`, the IC50 is 1 to 10 µM.

As to `C=CCN(CC=C)S(=O)(=O)c1ccc(-n2nc(C(N)=O)c3c2-c2cc(NS(C)(=O)=O)ccc2CC3)cc1`, the IC50 lay in the range of 1 to 10 µM.

In the case of `NC(=O)c1nn(-c2ccc(S(N)(=O)=O)cc2)c2c1CCc1ccc([N+](=O)[O-])cc1-2`, the 50% inhibitory concentration (IC50) is above 100 µM.

Regarding `NC(=O)c1nn(-c2ccc(F)cc2)c2c1CCc1ccc(NC(=O)c3nc(N4CCOCC4)ccc3Cl)cc1-2`, the IC50 was in the range of 1 to 10 µM.

Turning to `NC(=O)c1nn(-c2ccc(S(N)(=O)=O)cc2)c2c1CCc1ccc(NS(=O)(=O)c3ccc(Br)cc3F)cc1-2`, the IC50 was in the range of 1 to 10 µM.

Consider `NC(=O)c1nn(-c2ccc(-c3cccc(N)c3)cc2)c2c1CCc1ccc(NC(=O)c3ccccc3Cl)cc1-2`, for which the concentration for half-maximal inhibition (IC50) lay in the range of 1 to 10 µM.

Take `NC(=O)c1nn(-c2ccc3c(c2)OCO3)c2c1CCc1ccc(NC(=O)c3cc[n+]([O-])cc3)cc1-2`: the IC50 lay in the range of 1 to 10 µM.

With `NC(=O)c1nn(-c2ccc(S(=O)(=O)N3CC=CC3)cc2)c2c1CCc1ccc(N)cc1-2`, the IC50 fell in the range of 1 to 10 µM.

Turning to `CS(=O)(=O)c1ncc(Cl)c(C(=O)Nc2ccc3c(c2)-c2c(c(C(N)=O)nn2-c2ccc4c(c2)OCO4)CC3)n1`, the half-maximal inhibitory concentration (IC50) was at most 1 µM.

Take `NC(=O)c1nn(-c2ccc3c(c2)OCO3)c2c1CCc1ccc(NC(=O)c3cc(N4CCNCC4)ncc3Cl)cc1-2`: the IC50 is at most 1 µM.

Consider `NC(=O)c1nn(-c2ccc(S(=O)(=O)N3CCOCC3)cc2)c2c1CCc1ccc(N)cc1-2`, for which the IC50 lay in the range of 1 to 10 µM.

On to `NC(=O)c1nn(-c2ccc(S(=O)(=O)C(F)(F)F)cc2)c2c1CCc1ccc(N)cc1-2`, for which the IC50 was 1 to 10 µM.

For the molecule `COc1ccc(S(=O)(=O)Nc2ccc3c(c2)-c2c(c(C(N)=O)nn2-c2ccc(S(N)(=O)=O)cc2)CC3)cc1`, the 50% inhibitory concentration (IC50) was in the range of 10 to 100 µM.

With `NC(=O)c1nn(-c2ccc(S(N)(=O)=O)cc2)c2c1CCc1ccc(NS(=O)(=O)c3cccc(Cl)c3)cc1-2`, the IC50 lay in the range of 1 to 10 µM.

`COc1ccc(CNc2ncccc2C(=O)Nc2ccc3c(c2)-c2c(c(C(N)=O)nn2-c2ccc4c(c2)OCO4)CC3)cc1`: the IC50 lay in the range of 10 to 100 µM.

In the case of `NC(=O)c1nn(-c2ccc(C(F)(F)F)cc2)c2c1CCc1ccc(N)cc1-2`, the IC50 was in the range of 1 to 10 µM.

In the case of `NC(=O)c1nn(-c2ccc(S(N)(=O)=O)cc2)c2c1CCc1ccc(NC(=O)c3cccnc3)cc1-2`, the IC50 was at most 1 µM.

`CN(C)CCOc1ccc(-n2nc(C(N)=O)c3c2-c2cc(NC(=O)c4ccccc4Cl)ccc2CC3)cc1`: the IC50 fell in the range of 1 to 10 µM.

For the molecule `NC(=O)c1nn(-c2ccc3c(c2)OCO3)c2c1CCc1ccc(NC(=O)c3nc(CN4CCOCC4)ccc3Cl)cc1-2`, the half-inhibitory concentration (IC50) was at most 1 µM.

As for `CN(C)S(=O)(=O)c1ccc(-n2nc(C(N)=O)c3c2-c2cc(N)ccc2CC3)cc1`, the IC50 is 1 to 10 µM.

Regarding `C[S+]([O-])c1ccc(Cl)c(C(=O)Nc2ccc3c(c2)-c2c(c(C(N)=O)nn2-c2ccc(S(C)(=O)=O)cc2)CC3)c1` (stereo not given), the IC50 was at most 1 µM.

In the case of `NC(=O)c1nn(-c2ccc(S(N)(=O)=O)cc2)c2c1CCc1ccc(NC(=O)C3CCCCC3)cc1-2`, the half-maximal inhibitory concentration (IC50) lay within 1 to 10 µM.

`NC(=O)c1nn(-c2ccc3c(c2)OCO3)c2c1CCc1ccc(NC(=O)c3cccc(O)n3)cc1-2`: the IC50 lay in the range of 1 to 10 µM.

Turning to `NC(=O)c1nn(-c2ccc(S(N)(=O)=O)cc2)c2c1CCc1ccc(NS(=O)(=O)c3ccc(Br)cc3)cc1-2`, the 50% inhibitory concentration (IC50) was 1 to 10 µM.

Consider `NC(=O)c1nn(-c2ccc(C(=O)O)cc2)c2c1CCc1ccc(NC(=O)c3ccccc3Cl)cc1-2`, for which the IC50 was 1 to 10 µM.

As to `NC(=O)c1nn(-c2cccc(Cl)c2)c2c1CCc1ccc(NC(=O)c3ccccc3Cl)cc1-2`, the IC50 was at most 1 µM.

Take `CS(=O)(=O)c1ccc(-n2nc(C(N)=O)c3c2-c2cc(NC(=O)[C@@H](N)Cc4c[nH]cn4)ccc2CC3)cc1`: the IC50 lay in the range of 1 to 10 µM.

Regarding `NC(=O)c1nn(-c2cccnc2)c2c1CCc1ccc(NC(=O)c3ccccc3Cl)cc1-2`, the IC50 was 1 to 10 µM.

With `CN(C)CCNS(=O)(=O)c1ccc(-n2nc(C(N)=O)c3c2-c2cc(N)ccc2CC3)cc1`, the IC50 is 1 to 10 µM.

With `NC(=O)c1nn(-c2ccc(Cl)cc2)c2c1CCc1ccc(NC(=O)c3cnccc3Cl)cc1-2`, the IC50 is at most 1 µM.

Consider `CC(C)CNc1ccc2c(c1)-c1c(c(C(N)=O)nn1-c1ccc(S(N)(=O)=O)cc1)CC2`, for which the 50% inhibitory concentration (IC50) lay in the range of 10 to 100 µM.

`CSc1ccc(-n2nc(C(N)=O)c3c2-c2cc(NC(=O)c4ccccc4Cl)ccc2CC3)cc1`: the concentration for half-maximal inhibition (IC50) lay within 1 to 10 µM.

In the case of `CN(C)S(=O)(=O)c1ccc(-n2nc(C(N)=O)c3c2-c2cc(NC(=O)c4cccc(Cl)c4)ccc2CC3)cc1`, the concentration for half-maximal inhibition (IC50) was in the range of 1 to 10 µM.

For the molecule `COc1ccc(C(=O)Nc2ccc3c(c2)-c2c(c(C(N)=O)nn2-c2ccc(S(N)(=O)=O)cc2)CC3)cc1OC`, the IC50 is 1 to 10 µM.

For the molecule `NC(=O)c1nn(-c2ccc(S(N)(=O)=O)cc2)c2c1CCc1ccc(NC(=O)c3cccs3)cc1-2`, the IC50 was in the range of 10 to 100 µM.

For `CCCC(=O)Nc1ccc2c(c1)-c1c(c(C(N)=O)nn1-c1ccc(S(N)(=O)=O)cc1)CC2`, the half-inhibitory concentration (IC50) was in the range of 1 to 10 µM.

As to `NC(=O)c1nn(-c2ccc3c(c2)OCO3)c2c1CCc1ccc(NC(=O)c3ccoc3)cc1-2`, the IC50 lay in the range of 1 to 10 µM.

As for `NC(=O)c1nn(-c2ccc(S(N)(=O)=O)cc2)c2c1CCc1ccc(NC(=O)c3ccncc3)cc1-2`, the IC50 was at most 1 µM.

For the molecule `NC(=O)c1nn(-c2ccc(OCc3ccccc3)cc2)c2c1CCc1ccc(NC(=O)c3cccnc3Cl)cc1-2`, the IC50 lay in the range of 1 to 10 µM.

Turning to `CN1CCN(c2ncc(Cl)c(C(=O)Nc3ccc4c(c3)-c3c(c(C(N)=O)nn3-c3ccc(F)cc3)CC4)n2)CC1`, the IC50 is at most 1 µM.

Regarding `CC(C)N1CCN(c2cc(C(=O)Nc3ccc4c(c3)-c3c(c(C(N)=O)nn3-c3ccc(F)cc3)CC4)c(Cl)cn2)CC1`, the IC50 is at most 1 µM.

With `CS(=O)(=O)c1ccc(-n2nc(C(N)=O)c3c2-c2cc(N)ccc2CC3)cc1`, the IC50 is 1 to 10 µM.

On to `CNCC(=O)Nc1ccc2c(c1)-c1c(c(C(N)=O)nn1-c1ccc3c(c1)OCO3)CC2`, for which the IC50 fell in the range of 1 to 10 µM.

`Cc1c(C(=O)Nc2ccc3c(c2)-c2c(c(C(N)=O)nn2-c2ccc(S(C)(=O)=O)cc2)CC3)cccc1[N+](=O)[O-]`: the IC50 was 1 to 10 µM.

For the molecule `NC(=O)c1nn(-c2ccc(S(N)(=O)=O)cc2)c2c1CCc1ccc(NS(=O)(=O)c3ccc(F)cc3F)cc1-2`, the IC50 fell in the range of 10 to 100 µM.

On to `NC(=O)c1nn(-c2ccc(S(N)(=O)=O)cc2)c2c1CCc1ccc(NC(=O)c3cccc(Br)c3)cc1-2`, for which the half-inhibitory concentration (IC50) was at most 1 µM.

Take `CN1CCN(c2cc(C(=O)Nc3ccc4c(c3)-c3c(c(C(N)=O)nn3-c3ccc(F)cc3)CC4)c(Cl)cn2)CC1`: the IC50 was at most 1 µM.

In the case of `Cn1cnc(S(=O)(=O)Nc2ccc3c(c2)-c2c(c(C(N)=O)nn2-c2ccc(S(N)(=O)=O)cc2)CC3)c1`, the IC50 lay within 10 to 100 µM.

On to `NC(=O)c1nn(-c2ccc(S(N)(=O)=O)cc2)c2c1CCc1ccc(NC(=O)c3ccccc3OC(F)(F)F)cc1-2`, for which the IC50 was at most 1 µM.

Turning to `CN(C)C/C=C/c1ccc(-n2nc(C(N)=O)c3c2-c2cc(NC(=O)c4ccccc4Cl)ccc2CC3)cc1`, the IC50 is 1 to 10 µM.
